Results on six molecules are retold here after patent publication US6946464B2, “Methods of treating and preventing a convulsive state” (Sepracor Inc., priority 1999, dated 2005).

One may read the pIC50 as the negative decadic logarithm of the IC50, by convention in mol/L. A low value points to a large IC50. What is called pKi is the negative decadic logarithm of the Ki, by convention in mol/L.

pIC50, pKi: −log10 of the molar value.

Data set [1] addresses central benzodiazepine receptor. Kind of data set: Binding at the central benzodiazepine receptor (competition of specific binding). As to conditions: rat cerebral cortex; for pIC50: 10 concentrations in duplicate, nonlinear regression; for pKi: inhibition constant calculated from competition curves. The method, then:
(§1) The binding of N-desmethylzopiclone was determined at the central benzodiazepine receptor and at the non-selective muscarinic receptor, both of which were isolated from rat cerebral cortex. Compounds were tested initially at 10 μM in duplicate, and if at least a 50% inhibition of specific binding was observed, they were tested further at 10 different concentrations in duplicate in order to obtain full competition curves. IC50 values (concentration required to inhibit 50% specific binding) were determined by nonlinear regression analysis of the curves, and inhibition constants (Ki) were also calculated.

For data set [2], the system named is non-selective muscarinic receptor. Kind of data set: Binding at the non-selective muscarinic receptor. Particulars: rat cerebral cortex; tested at 10 μM in duplicate. As for the experimental part: as §1
The conditions of data set [3]: healthy humans; cited from earlier work.
The conditions of data set [4]: as reported by Goa and Heel, Drugs 32:48-65 (1986); cited from earlier work.

Regarding `CN1C(=O)CN=C(c2ccccc2)c2cc(Cl)ccc21` [Diazepam, reference compound], in data set [1], the pIC50 was 7.92 and the pKi was 8.00.

For the molecule `O=C(OC1c2nccnc2C(=O)N1c1ccc(Cl)cn1)N1CCNCC1` (racemic) [(±)-N-desmethylzopiclone], in data set [1], the pIC50 is 5.96 and the pKi is 6.03. Moreover, the “Muscarinic (% Inhibition)” value in data set [2] is given as 10%.

On to `O=C(O[C@H]1c2nccnc2C(=O)N1c1ccc(Cl)cn1)N1CCNCC1` [(+)-N-desmethylzopiclone], for which, in data set [1], the pIC50 was 6.26 and the pKi is 6.34. Besides, in data set [2], the “Muscarinic (% Inhibition)” value turned out to be 19%.

On to `O=C(O[C@@H]1c2nccnc2C(=O)N1c1ccc(Cl)cn1)N1CCNCC1` [(−)-N-desmethylzopiclone], for which, in data set [1], the pIC50 was 5.15 and the pKi is 5.22. In addition, in data set [2], the “Muscarinic (% Inhibition)” value is reported as 24%.

`O=C(O[C@H]1c2nccnc2C(=O)N1c1ccc(Cl)cn1)N1CCNCC1` [N-desmethylzopiclone]: the “share of an oral dose of racemic zopiclone accounted for by the metabolite” value in data set [3] is reported as 15%. The reported pharmacological activity result in data set [4] was “inactive”.

For `C[N+]1([O-])CCN(C(=O)O[C@H]2c3nccnc3C(=O)N2c2ccc(Cl)cn2)CC1` [N-oxidezopiclone, reference compound], the “share of an oral dose of racemic zopiclone accounted for by the metabolite” value in data set [3] is listed as 11%. In addition, the reported pharmacological activity entry in data set [4] is “less active than zopiclone”.
